# Literature values as cited in patent publication US5776505A (Bayer Aktiengesellschaft, priority 1995, dated 1998).
# Conditions: cross-over study; with magnesium hydroxide
compound,measurement,value
CC(C)Cc1ccc(C(C)C(=O)O)cc1 (stereo not shown) [ibuprofen],plasma concentration as a result of addition of magnesium hydroxide,higher plasma concentration
